Data reported in patent US4440772A, “Acid addition salts of dextrorotatory ergot alkaloids, a process for the preparation thereof as well as their use as medicines” (priority 1978, dated 1984).
Structures can show the parent of a compound that is named as a salt. Where two headings read alike, the source gives them in different places.

What was measured:
[1] = established for known ergot alkaloids; cited from earlier work
[2] = literature comparison; cited from earlier work
[3] = test system: smooth muscles of blood vessels; test: effect on blood pressure drop in rats with cut spinal cord; assay type: in vivo, rats (variety Wistar); conditions: for long-duration hypertension (effect in words): 4.5 mg/kg of body weight; for vasoconstrictory effect: contraction of smooth muscles of blood vessels
Source text: Rats (variety Wistar) in urethane narcosis were cut their spinal cord in the region of the second cervical vertebra and connected to an artificial breathing apparatus (B. Melsungen). By this intervention the central regulation of blood pressure was eliminated. In so treated animals blood pressure dropped for about 50 mm Hg. The experiment was supposed to show whether the examined substances directly affected the smooth muscles of blood vessels.

heart in situ = test: effect on heart in situ in rats; assay type: in vivo; conditions: slow infusion
Method: The effect of ergotaminine, ergosinine and ergocrystinine on heart in situ was examined in rats. The thorax of narcotized rats (0.7 ml of 25% urethane solution per 100 g of the body weight, administered subcutaneously) was opened. The heart was placed into a special basket with a balloon, which was connected over a polyethylene cannula to a transducer "Mini Pressure Transducer--Beckmann" and dynograph Beckmann. As the left wall of the ventricle leant against the balloon, the contraction of the ventricle could be recorded. Over a tracheal tube the rats were connected to an artificial breathing apparatus.

[4] = acute toxicity (LD50), intraperitoneal administration; conditions: mouse, in vivo, ip, male mice, 24 hours after administration
Method: The volume of injected solution was 0.01 ml/g of body weight. In the following Table I acute toxicity of dextrorotatory ergot alkaloids in comparison with levorotatory ergot alkaloids 24 hours after the intraperitoneal administration is given.

[5] = test system: spontaneously hypertensive rats; test: effect on arterial pressure of spontaneously hypertensive rats; assay type: in vivo, rats (variety Okamoto Aoki F32)
Method: For the experiment groups of 10 spontaneously hypertensive rats (variety Okamoto Aoki F32) of both sexes, weighing from 200 to 250 g, were used. The acid addition salts of said dextrorotatory ergot alkaloids were administered intraperitoneally in doses of 50 mcg/kg of body weight and systolic blood pressure was measured on the rats' tails by means of plethysmographic method (K. Okamoto and K. Aoki, Jap. Circulat. J. 27, 1963, 282).

[6] = test system: arrhythmias induced by adrenalin; test: effect on arrhythmia induced by adrenalin; assay type: in vivo; conditions: guinea pigs; for Shortening of arrhythmia duration: 2.0 mg/kg intraperitoneally, adrenalin 0.02 mg/kg intravenously
Method: For experiments, guinea pigs of both sexes, weighing from 400 to 550 g, were used. The narcotized animals (urethane 1.6 g/kg of body weight, intraperitoneally) were at first intravenously administered adrenalin (0.02 mg/kg) and then dextrorotatory ergot alkaloids. 1 hour and 1.5 hours after the administration of dextrorotatory ergot alkaloids, adrenalin was again administered intravenously (0.02 mg/kg) and the presence as well as duration of arrhythmias was ascertained.

[7] = test system: alpha-adrenergic receivers of the dilatating pupil muscle; test: effect on the function of the pupil (mydriatic effect, Polewka's method); assay type: in vivo; conditions: 5 mg/kg intravenously, mouse
Method: The phenomenon of mydriasis induced by ergot alkaloids results from the stimulation of alpha-adrenergic receivers of the dilatating pupil muscle (Z. Votava et al., Arch. int. Pharmacodin. 45, 1958, 114).
The mydriatic effect of dextrorotatory ergot alkaloids administered intravenously was determined with a monocular measuring magnifying glass by Polewka's method (A. R. Turner, Screening Methods in Pharmacology, 1965, p. 174 ff.).
The size of the pupil was measured at first before the administration of the substance and then 15, 30 and 60 minutes after intravenous administration of alkaloids into the mouse tail (dose 5 mg/kg of body weight).

[8] = test system: isolated heart of a guinea pig; test: effect on isolated heart of a guinea pig, modified Langendorff's method
Source text: The effect of dextrorotatory ergot alkaloids according to the invention on heart in vitro was examined on isolated heart of a guinea pig by the modified Langendorff's method (Zalar et al., Poll. Chim. Farmac. 114, 1975, 146). Alkaloids were infused by an apparatus for slow infusion (B. Melsungen).

[9] = control, spontaneously hypertensive rats
[10] = day 2, 50 mcg/kg intraperitoneally
[11] = day 4, 50 mcg/kg intraperitoneally
[12] = day 6, 50 mcg/kg intraperitoneally
[13] = day 8, 50 mcg/kg intraperitoneally
[14] = day 10, 50 mcg/kg intraperitoneally
[15] = spontaneously hypertensive rats, 50 mcg/kg intraperitoneally

SMILES | increase of the strength of heart contraction (heart in situ; 250 mcg/kg intravenously) | increase of the strength of heart contraction (heart in situ; 300 mcg/kg intravenously) | LD50 at 24 h [4] | Systolic blood pressure [5, 9] | Systolic blood pressure [5, 10] | Systolic blood pressure [5, 11] | Systolic blood pressure [5, 12] | Systolic blood pressure [5, 13] | Systolic blood pressure [5, 14] | Shortening of arrhythmia duration [6] | The increase of pupil widening in comparison with the control ([7]; after 15 min.) | The increase of pupil widening in comparison with the control ([7]; after 30 min.) | The increase of pupil widening in comparison with the control ([7]; after 60 min.) | also measured
CN1C[C@H](C(=O)N[C@]2(C)O[C@@]3(O)[C@@H]4CCCN4C(=O)[C@H](Cc4ccccc4)N3C2=O)C[C@@H]2c3cccc4[nH]cc(c34)C[C@H]21 [dihydroergotamine] |  |  |  |  |  |  |  |  |  |  |  |  |  | heart action (bradycardia) [1]: bradycardia; vasoconstrictory effect [2]: vasoconstrictory effect
CC(C)[C@@]1(NC(=O)[C@H]2C=C3c4cccc5[nH]cc(c45)C[C@H]3N(C)C2)O[C@@]2(O)[C@@H]3CCCN3C(=O)[C@H](Cc3ccccc3)N2C1=O [ergocristinine] | 15% | 30% |  |  |  |  |  |  |  |  |  |  |  | long-duration hypertension (effect in words) [3]: no effect
CC(C)C[C@H]1C(=O)N2CCC[C@H]2[C@]2(O)O[C@@](C)(NC(=O)[C@@H]3C=C4c5cccc6[nH]cc(c56)C[C@H]4N(C)C3)C(=O)N12 [ergosine methanesulfonate, reference compound] |  |  | 206 mg/kg | 188 mm Hg | 183 mm Hg | 178 mm Hg | 176 mm Hg | 175 mm Hg | 177 mm Hg | 84 % of control | 115.6% | 110.5% | 39.7% | activation at 0.57 µg/g ([8]; Cavia porcellus, dose 0.57 mcg/g of heart, read-out: (+)inotropic (maximum)): 49%; inhibition at 0.57 µg/g ([8]; Cavia porcellus, dose 0.57 mcg/g of heart, read-out: (-)chronotropic (maximum)): 17%
CC(C)C[C@H]1C(=O)N2CCC[C@H]2[C@]2(O)O[C@@](C)(NC(=O)[C@H]3C=C4c5cccc6[nH]cc(c56)C[C@H]4N(C)C3)C(=O)N12 [ergosinine methanesulfonate, Ergosinine methanesulfonate] |  |  | 245 mg/kg | 180 mm Hg | 169 mm Hg | 152 mm Hg | 140 mm Hg | 141 mm Hg | 138 mm Hg | 79 % of control | 135.0% | 122.5% | 32.5% | activation at 0.65 µg/g ([8]; Cavia porcellus, dose 0.65 mcg/g of heart, read-out: (+)inotropic (maximum)): 103%; inhibition at 0.65 µg/g ([8]; Cavia porcellus, dose 0.65 mcg/g of heart, read-out: (-)chronotropic (maximum)): 23%
CC(C)C[C@H]1C(=O)N2CCC[C@H]2[C@]2(O)O[C@@](C)(NC(=O)[C@H]3C=C4c5cccc6[nH]cc(c56)C[C@H]4N(C)C3)C(=O)N12 [ergosinine] | 15% | 30% |  |  |  |  |  |  |  |  |  |  |  | effect on systolic blood pressure (in words) [5, 15]: strongest effect; effect on duration of arrhythmia (in words) ([6]; arrhythmias induced by adrenalin): most efficiently shortened; long-duration hypertension (effect in words) [3]: The same effect; vasoconstrictory effect [3]: vasoconstrictory effect; mydriatic effect (in words) [7]: strongest mydriatic effect; effect on isolated heart (in words) ([8]; isolated heart of guinea pig): qualitatively similar to that of ergotamine, ergosine and dihydroergotamine; effect on the strength of heart contraction (in words) ([8]; isolated heart of guinea pig): quantitatively greater effect on the strength of heart contraction
CN1C[C@H](C(=O)N[C@]2(C)O[C@@]3(O)[C@@H]4CCCN4C(=O)[C@H](Cc4ccccc4)N3C2=O)C=C2c3cccc4[nH]cc(c34)C[C@H]21 [ergotamine tartrate, reference compound] |  |  | 412 mg/kg | 179 mm Hg | 174 mm Hg | 170 mm Hg | 172 mm Hg | 173 mm Hg | 172 mm Hg | 63 % of control | 73.3% | 22.8% | 4.6% | activation at 0.65 µg/g ([8]; Cavia porcellus, read-out: (+)inotropic (maximum)): 75%; inhibition at 0.65 µg/g ([8]; Cavia porcellus, read-out: (-)chronotropic (maximum)): 30%
CN1C[C@H](C(=O)N[C@]2(C)O[C@@]3(O)[C@@H]4CCCN4C(=O)[C@H](Cc4ccccc4)N3C2=O)C=C2c3cccc4[nH]cc(c34)C[C@H]21 [ergotamine] |  |  |  |  |  |  |  |  |  |  |  |  |  | heart action (bradycardia) [1]: bradycardia
CN1C[C@@H](C(=O)N[C@]2(C)O[C@@]3(O)[C@@H]4CCCN4C(=O)[C@H](Cc4ccccc4)N3C2=O)C=C2c3cccc4[nH]cc(c34)C[C@H]21 [ergotaminine methanesulfonate, Ergotaminine methanesulfonate] |  |  | > 300 mg/kg | 189 mm Hg | 162 mm Hg | 143 mm Hg | 131 mm Hg | 144 mm Hg | 150 mm Hg | 28 % of control | 66.3% | 69.8% | 30.3% | activation at 5.59 µg/g ([8]; Cavia porcellus, dose 5.59 mcg/g of heart, read-out: (+)inotropic (maximum)): 32%; inhibition at 5.59 µg/g ([8]; Cavia porcellus, dose 5.59 mcg/g of heart, read-out: (-)chronotropic (maximum)): 20%
CN1C[C@@H](C(=O)N[C@]2(C)O[C@@]3(O)[C@@H]4CCCN4C(=O)[C@H](Cc4ccccc4)N3C2=O)C=C2c3cccc4[nH]cc(c34)C[C@H]21 [ergotaminine] | 15% | 30% |  |  |  |  |  |  |  |  |  |  |  | effect on systolic blood pressure (in words) [5, 15]: strongest effect; duration of long-duration hypertension ([3]; acid addition salts, 1.5 mg/kg of body weight): more than 60 minutes; vasoconstrictory effect [3]: vasoconstrictory effect; effect on isolated heart (in words) ([8]; isolated heart of guinea pig): qualitatively similar to that of ergotamine, ergosine and dihydroergotamine
